In patent publication US11795404B2, “Composition for removing sulfur-containing compounds” (KURARAY CO., LTD., priority 2018, dated 2023) one finds pKa and Removal rate data, which are given here for four compounds.

For data set [1] the following is noted: conjugate acid in water at 25° C.; cited from earlier work.
A short description of data set [2]: Sulfur-containing compound removal reaction, BuSH in liquid hydrocarbon (GC-SCD). Particulars: BuSH 50 μL (1000 ppm by volume) in kerosene 50 mL; aldehyde 250 μL; room temperature; reaction time 1 day. The method, then: In a 100 mL three-neck flask, 50 mL of kerosene was put and 50 μL (1000 ppm by volume, 0.46 mmol) of BuSH was added thereto to obtain a kerosene solution containing a sulfur-containing compound.
Next, 250 μL (2.59 mmol) of SAL and 250 μL (1.71 mmol) of DBU were added to the kerosene solution, and the solution was stirred at room temperature (20° C.±5° C., the same applies hereinafter) and at 800 rpm to perform a sulfur-containing compound removal reaction.
After 1-day reaction, the mercaptan concentration of the liquid phase in the three-neck flask was measured.
The mercaptan concentration of the liquid phase was measured using a calibration curve method by gas chromatography. The gas chromatography was performed under the following conditions.
Analyzer: GC-SCD (manufactured by Agilent Technologies Japan, Ltd.)
Detector: sulfur chemiluminescence detector (SCD)
Column: DB-sulfur SCD (length: 60 m, thickness: 4.2 μm, inner diameter: 0.32 mm) (manufactured by Agilent Technologies Japan, Ltd.)
Analytical conditions: inject. temp. 250° C., detect. temp. 250° C.
Temperature rise condition: 35° C. (kept for 3 minutes) (raised at 10° C./min)→250° C. (kept for 15 minutes)
Internal Standard Substance: diphenyl sulfide
A sulfur-containing compound removal reaction was performed in the same manner as in Example 3 except that crude oil was used in place of kerosene.

Molecules are shown by their SMILES.

In the case of `CN(C)CCN(C)CCN(C)C` [PMDETA, N,N,N′,N″,N″-Pentamethydiethylenetriamine], the pKa in data set [1] was 9.1. On to `C=CC=O` [Comparative Example 4, Acrolein], for which the Removal rate in data set [2] was 15%.

On to `CC(C)=CC=O` [Comparative Example 1, Senecioaldehyde], for which, in data set [2], the Removal rate was <10%. As for `C1CCC2=NCCCN2CC1` [DBU, 1,8-Diazabicyclo[5.4.0]-7-undecene], in data set [1], the pKa is recorded as 11.5.

By pKa is commonly meant the negative logarithm of the acid dissociation constant.
